PMC8383264, “Structural Characterization of the Reaction and Substrate Specificity Mechanisms of Pathogenic Fungal Acetyl-CoA Synthetases” (ACS Chemical Biology, 2021)

Legend:
A. fumigatus Acs1 = target: T1, A. fumigatus Acs1 (Aspergillus fumigatus, UniProt Q4WQ02); experiment: Coupled continuous pyrophosphate detection assay (EnzChek) of ACS activity; details: substrate Km; other substrates in excess; 37 °C; ±S.E.M.
T1 sequence (Q4WQ02 2-670): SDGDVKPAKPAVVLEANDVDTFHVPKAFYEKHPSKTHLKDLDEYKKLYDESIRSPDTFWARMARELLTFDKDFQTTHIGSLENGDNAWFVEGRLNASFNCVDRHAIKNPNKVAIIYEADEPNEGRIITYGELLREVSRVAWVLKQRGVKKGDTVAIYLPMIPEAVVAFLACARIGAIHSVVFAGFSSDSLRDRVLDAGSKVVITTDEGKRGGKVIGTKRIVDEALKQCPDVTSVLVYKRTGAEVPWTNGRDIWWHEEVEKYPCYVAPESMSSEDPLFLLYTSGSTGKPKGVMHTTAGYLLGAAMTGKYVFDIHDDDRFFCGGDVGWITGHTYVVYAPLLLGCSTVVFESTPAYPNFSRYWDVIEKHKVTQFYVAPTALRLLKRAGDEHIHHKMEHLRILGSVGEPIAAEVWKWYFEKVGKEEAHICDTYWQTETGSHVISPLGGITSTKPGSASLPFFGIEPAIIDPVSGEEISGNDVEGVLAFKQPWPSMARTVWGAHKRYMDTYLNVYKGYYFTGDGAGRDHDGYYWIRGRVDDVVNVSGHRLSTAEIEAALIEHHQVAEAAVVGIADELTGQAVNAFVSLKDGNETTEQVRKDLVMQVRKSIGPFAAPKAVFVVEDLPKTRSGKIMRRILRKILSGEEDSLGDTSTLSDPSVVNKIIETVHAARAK

S. cerevisiae Acs1 = target: T2, S. cerevisiae Acs1 (Saccharomyces cerevisiae, UniProt Q01574); experiment: as above; details: 37 °C
T2 sequence (Q01574 1-713): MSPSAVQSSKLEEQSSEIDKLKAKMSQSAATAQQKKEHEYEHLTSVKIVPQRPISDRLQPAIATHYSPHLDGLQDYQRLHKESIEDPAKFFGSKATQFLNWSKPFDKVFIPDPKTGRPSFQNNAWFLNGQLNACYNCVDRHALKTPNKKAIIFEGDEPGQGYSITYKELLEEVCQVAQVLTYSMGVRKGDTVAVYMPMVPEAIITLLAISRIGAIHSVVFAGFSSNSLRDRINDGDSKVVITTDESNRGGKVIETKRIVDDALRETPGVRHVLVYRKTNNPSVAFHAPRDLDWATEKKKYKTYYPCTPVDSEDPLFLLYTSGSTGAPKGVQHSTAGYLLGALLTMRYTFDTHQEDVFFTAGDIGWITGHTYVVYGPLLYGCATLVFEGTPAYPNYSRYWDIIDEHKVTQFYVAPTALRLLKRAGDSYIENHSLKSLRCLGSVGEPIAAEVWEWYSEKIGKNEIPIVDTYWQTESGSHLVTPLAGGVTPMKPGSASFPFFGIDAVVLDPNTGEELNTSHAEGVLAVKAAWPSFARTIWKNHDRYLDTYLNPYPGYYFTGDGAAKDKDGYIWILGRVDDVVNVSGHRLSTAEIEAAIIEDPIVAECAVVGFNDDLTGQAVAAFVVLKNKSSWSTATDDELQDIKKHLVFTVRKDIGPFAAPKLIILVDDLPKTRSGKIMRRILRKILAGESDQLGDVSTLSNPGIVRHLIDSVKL

C. immitis Acs1 = C. immitis Acs1 (Coccidioides immitis, UniProt J3KJC6); details: 37 °C
Chain of C. immitis Acs1 (J3KJC6 2-691 limits assumed): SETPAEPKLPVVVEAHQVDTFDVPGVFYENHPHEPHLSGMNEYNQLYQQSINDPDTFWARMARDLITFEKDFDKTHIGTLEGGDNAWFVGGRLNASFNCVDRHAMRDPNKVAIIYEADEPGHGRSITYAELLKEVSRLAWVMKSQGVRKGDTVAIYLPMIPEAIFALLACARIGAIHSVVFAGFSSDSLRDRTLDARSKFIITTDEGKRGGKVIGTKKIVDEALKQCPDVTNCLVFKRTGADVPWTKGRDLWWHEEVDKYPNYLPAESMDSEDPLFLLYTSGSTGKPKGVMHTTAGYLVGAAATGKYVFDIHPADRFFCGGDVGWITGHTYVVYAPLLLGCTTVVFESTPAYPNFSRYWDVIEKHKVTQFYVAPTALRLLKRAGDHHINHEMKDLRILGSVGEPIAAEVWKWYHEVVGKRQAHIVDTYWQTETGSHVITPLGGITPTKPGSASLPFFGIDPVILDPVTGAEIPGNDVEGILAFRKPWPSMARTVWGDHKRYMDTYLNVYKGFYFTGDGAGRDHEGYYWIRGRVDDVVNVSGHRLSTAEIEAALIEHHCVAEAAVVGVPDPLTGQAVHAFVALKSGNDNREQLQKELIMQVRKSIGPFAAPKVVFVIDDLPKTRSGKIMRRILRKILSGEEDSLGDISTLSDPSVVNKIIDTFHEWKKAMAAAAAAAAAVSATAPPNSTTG

C. albicans Acs1 = C. albicans Acs1 (Candida albicans, UniProt Q8NJN3); experiment: Coupled continuous pyrophosphate detection assay (EnzChek) of ACS activity; details: 37 °C
Chain of C. albicans Acs1 (Q8NJN3 2-671 limits assumed): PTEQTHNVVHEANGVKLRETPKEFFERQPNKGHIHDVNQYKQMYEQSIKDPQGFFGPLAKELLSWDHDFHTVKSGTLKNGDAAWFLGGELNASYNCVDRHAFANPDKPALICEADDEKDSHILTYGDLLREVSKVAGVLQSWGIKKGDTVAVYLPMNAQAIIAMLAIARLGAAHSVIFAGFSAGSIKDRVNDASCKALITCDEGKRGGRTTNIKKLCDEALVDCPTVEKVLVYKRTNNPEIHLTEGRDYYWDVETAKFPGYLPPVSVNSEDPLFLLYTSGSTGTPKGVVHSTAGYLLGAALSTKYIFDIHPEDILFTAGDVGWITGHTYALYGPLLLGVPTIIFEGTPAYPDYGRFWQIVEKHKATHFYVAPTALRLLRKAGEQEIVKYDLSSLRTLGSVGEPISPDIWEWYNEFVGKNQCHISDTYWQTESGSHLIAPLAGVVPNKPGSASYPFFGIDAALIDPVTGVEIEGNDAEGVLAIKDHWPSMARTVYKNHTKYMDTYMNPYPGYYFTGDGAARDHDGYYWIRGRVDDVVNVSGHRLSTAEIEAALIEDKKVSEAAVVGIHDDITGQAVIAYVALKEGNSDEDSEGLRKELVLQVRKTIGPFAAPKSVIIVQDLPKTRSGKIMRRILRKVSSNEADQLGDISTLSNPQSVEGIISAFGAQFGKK

CnAcs1 = CnAcs1 (Cryptococcus neoformans, UniProt J9VFT1); experiment: as above
Chain of CnAcs1 (J9VFT1 entry or part of it): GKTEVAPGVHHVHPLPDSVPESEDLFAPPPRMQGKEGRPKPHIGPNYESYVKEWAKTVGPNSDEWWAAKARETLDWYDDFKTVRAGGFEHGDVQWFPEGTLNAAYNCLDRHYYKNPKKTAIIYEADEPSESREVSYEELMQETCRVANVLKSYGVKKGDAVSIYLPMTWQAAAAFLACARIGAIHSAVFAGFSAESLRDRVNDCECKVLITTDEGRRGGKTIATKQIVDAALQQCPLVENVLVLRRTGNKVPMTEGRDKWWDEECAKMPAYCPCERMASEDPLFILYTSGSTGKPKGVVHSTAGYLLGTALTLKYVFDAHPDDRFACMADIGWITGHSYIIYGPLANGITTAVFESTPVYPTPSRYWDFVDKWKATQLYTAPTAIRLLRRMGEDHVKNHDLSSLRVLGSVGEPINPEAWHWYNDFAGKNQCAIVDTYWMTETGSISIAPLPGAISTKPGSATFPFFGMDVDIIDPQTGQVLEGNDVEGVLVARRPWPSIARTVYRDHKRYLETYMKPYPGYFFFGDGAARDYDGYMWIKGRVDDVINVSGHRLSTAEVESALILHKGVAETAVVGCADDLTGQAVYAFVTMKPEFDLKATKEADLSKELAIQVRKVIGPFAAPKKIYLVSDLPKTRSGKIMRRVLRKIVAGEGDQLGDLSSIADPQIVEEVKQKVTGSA

C. posadasii Acs1 = C. posadasii Acs1 (Coccidioides posadasii, UniProt C5PGB4); details: 37 °C
Chain of C. posadasii Acs1 (C5PGB4 2-691 limits assumed): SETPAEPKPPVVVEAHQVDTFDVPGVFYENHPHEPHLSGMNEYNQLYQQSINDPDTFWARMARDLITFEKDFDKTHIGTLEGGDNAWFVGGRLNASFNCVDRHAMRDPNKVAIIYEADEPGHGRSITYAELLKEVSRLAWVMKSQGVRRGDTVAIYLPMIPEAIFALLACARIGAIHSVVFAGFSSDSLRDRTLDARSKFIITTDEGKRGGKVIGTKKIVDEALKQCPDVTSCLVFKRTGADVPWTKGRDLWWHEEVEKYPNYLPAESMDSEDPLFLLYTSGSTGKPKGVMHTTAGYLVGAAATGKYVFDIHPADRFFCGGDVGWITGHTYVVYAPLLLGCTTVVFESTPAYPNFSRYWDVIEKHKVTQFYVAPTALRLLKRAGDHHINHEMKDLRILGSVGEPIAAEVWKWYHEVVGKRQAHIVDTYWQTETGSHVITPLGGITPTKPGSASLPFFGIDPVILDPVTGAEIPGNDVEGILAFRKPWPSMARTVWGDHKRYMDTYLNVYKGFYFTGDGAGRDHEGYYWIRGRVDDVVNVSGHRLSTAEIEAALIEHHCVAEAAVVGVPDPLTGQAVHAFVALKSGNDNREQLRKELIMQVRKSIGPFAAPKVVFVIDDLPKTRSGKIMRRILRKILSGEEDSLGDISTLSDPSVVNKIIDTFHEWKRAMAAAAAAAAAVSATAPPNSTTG

## CC(=O)O [acetate, reference compound]
A. fumigatus Acs1
  Km: 18 ± 2 µM
S. cerevisiae Acs1
  Km: 63 ± 13 µM
C. immitis Acs1
  Km: 32 ± 5 µM
C. albicans Acs1
  Km: 79 ± 7 µM
CnAcs1; alternative acid substrates
  utilization as substrate for CnAcs1: optimum substrate
CnAcs1; calculated for substrate binding
  calculated binding energy ΔG: -5.5 kcal/mol
CnAcs1; substrate Km, other substrates in excess (ATP 2.5 mM, CoA 1 mM, sodium acetate 0.5 mM), 37 °C, ±S.E.M.
  Km: 130 ± 40 µM
C. posadasii Acs1
  Km: 27 ± 2 µM
